Results reported in patent US20240360122A1, “POLYMORPHIC FORMS AND SALTS OF A GLP-1R AGONIST” (Terns (Suzhou) Biotechnology Co., Ltd., priority 2023, published 2024).
Entries after “also recorded” stand apart in the source; their conditions may differ. Where a name gives a salt, the structure may show the parent alone.

Legend:
Type in all cases: physicochemical
[1] = pH solubility in pH 1.0-8.0 buffers at RT; conditions: thermodynamic from solid; for solubility: pH buffers, 2 and 24 hours
Method: The procedures were listed below:
1. […] Add 2 ml, of the corresponding medium.
2. Mixed well and stirred at RT (1000 rpm). Check the pH and adjust it back to the target pH after dosing.
3. Sampled after 2 hours and 24 hours. The supernatant was isolated by centrifugation (12000 rpm, 5 min) and filtration (0.22 μm, PTFE) for pH and HPLC test.

[2] = Solid state stability at 25° C./60% RH and 40° C./75% RH for 1 week; conditions: for HPLC peak Area, RRT 1.00: main peak
Method: Each sample was added into a glass vial, sealed by parafilm with several holes, and kept under tested conditions. After one week, samples were taken for XRPD and HPLC purity test.

[3] = Slurry competition among Meglumine salt Type A/B/C; conditions: slurry competition in DMSO/EtOAc (1:6, v/v), RT and 50° C.
Method: The detailed procedures are as following:
Add 1 mL corresponding solvent.
2) Magnetically stir at RT or 50° C. for 1 day. Filter through 0.45 μm PTFE filter to obtain clear solution.
4) Magnetically stir at RT or 50° C. for 1 day. Test XRPD of the wet cake.

N#Cc1ccc(COc2cccc(C3CCN(Cc4nc5ccc(C(=O)O)cc5n4Cc4cncs4)CC3)n2)c(F)c1 [Meglumine salt Type A]
solubility at 2 h ([1]; pH 3.5 buffer, pH 3.5, aqueous buffer, LOQ = 0.0001 mg/mL): 21 µg/mL
solubility at 2 h ([1]; pH 4.5 buffer, pH 4.5, aqueous buffer, LOQ = 0.0001 mg/mL): 3.7 µg/mL
solubility at 24 h ([1]; pH 4.5 buffer, pH 4.5, aqueous buffer, 24 Hours, LOQ = 0.0001 mg/mL): 0.1 µg/mL
solubility at 2 h ([1]; pH 5.5 buffer, pH 5.5, aqueous buffer, LOQ = 0.0001 mg/mL): 2.8 µg/mL
solubility ([1]; pH 1, aqueous buffer, pH 1.0 and 8.0 buffers): 150 to 1300 µg/mL
solubility ([1]; pH 2, aqueous buffer, pH 2.0 and 6.8 buffers): 16 to 200 µg/mL
solubility ([1]; pH 3.5, aqueous buffer, pH 3.5, 4.5 and 5.5 buffers): ≤ 21 µg/mL
HPLC peak Area, RRT 0.70 ([2]; 25° C./60% RH, 1 week): 0.07%
HPLC peak Area, RRT 0.73 ([2]; 25° C./60% RH, 1 week): 0.14%
HPLC peak Area, RRT 0.80 ([2]; 25° C./60% RH, 1 week): 0.05%
HPLC peak Area, RRT 0.83 ([2]; 25° C./60% RH, 1 week): 1.93%
HPLC peak Area, RRT 0.90 ([2]; 25° C./60% RH, 1 week): 0.12%
HPLC peak Area, RRT 0.99 ([2]; 25° C./60% RH, 1 week): <0.05%
HPLC peak Area, RRT 1.05 ([2]; 25° C./60% RH, 1 week): 0.28%
HPLC peak Area, RRT 1.10 ([2]; 25° C./60% RH, 1 week): 0.23%
HPLC peak Area, RRT 1.12 ([2]; 25° C./60% RH, 1 week): <0.05%
HPLC peak Area, RRT 1.15 ([2]; 25° C./60% RH, 1 week): 0.11%
HPLC peak Area, RRT 1.34 ([2]; 25° C./60% RH, 1 week): 0.08%
HPLC peak Area, RRT 1.00 ([2]; 25° C./60% RH, 1 week): 96.98%
Form change ([2]; 25° C./60% RH/Open/1 week): No
Purity ([2]; 25° C./60% RH/Open/1 week): 96.98 Area %
solid-state stability: form change and purity decrease ([2]; 25° C./60% RH/open and 40° C./75% RH/open, 1 week): no form change or significant purity decrease
HPLC peak Area, RRT 0.70 ([2]; 40° C./75% RH, 1 week): 0.06%
HPLC peak Area, RRT 0.73 ([2]; 40° C./75% RH, 1 week): 0.15%
HPLC peak Area, RRT 0.80 ([2]; 40° C./75% RH, 1 week): 0.05%
HPLC peak Area, RRT 0.83 ([2]; 40° C./75% RH, 1 week): 1.96%
HPLC peak Area, RRT 0.90 ([2]; 40° C./75% RH, 1 week): 0.11%
HPLC peak Area, RRT 0.99 ([2]; 40° C./75% RH, 1 week): <0.05%
HPLC peak Area, RRT 1.05 ([2]; 40° C./75% RH, 1 week): 0.28%
HPLC peak Area, RRT 1.10 ([2]; 40° C./75% RH, 1 week): 0.34%
HPLC peak Area, RRT 1.12 ([2]; 40° C./75% RH, 1 week): <0.05%
HPLC peak Area, RRT 1.15 ([2]; 40° C./75% RH, 1 week): 0.13%
HPLC peak Area, RRT 1.34 ([2]; 40° C./75% RH, 1 week): 0.05%
HPLC peak Area, RRT 1.00 ([2]; 40° C./75% RH, 1 week): 96.88%
Form change ([2]; 40° C./75% RH/Open/1 week): No
Purity ([2]; 40° C./75% RH/Open/1 week): 96.88 Area %
HPLC peak Area, RRT 0.70 ([2]; Initial): 0.07%
HPLC peak Area, RRT 0.73 ([2]; Initial): 0.13%
HPLC peak Area, RRT 0.80 ([2]; Initial): 0.05%
HPLC peak Area, RRT 0.83 ([2]; Initial): 1.95%
HPLC peak Area, RRT 0.90 ([2]; Initial): 0.12%
HPLC peak Area, RRT 0.99 ([2]; Initial): 0.11%
HPLC peak Area, RRT 1.05 ([2]; Initial): 0.28%
HPLC peak Area, RRT 1.10 ([2]; Initial): 0.24%
HPLC peak Area, RRT 1.12 ([2]; Initial): 0.05%
HPLC peak Area, RRT 1.15 ([2]; Initial): 0.11%
HPLC peak Area, RRT 1.34 ([2]; Initial): 0.16%
Purity ([2]; Initial): 96.73 Area %
HPLC peak Area, RRT 1.00 ([2]; Initial): 96.73%
thermodynamic stability relationship among Meglumine salt forms [3]: thermodynamically more stable anhydrate; also recorded: more thermodynamically stable form; also recorded: thermodynamically more stable form
